Data set [1] has as its system DP50 cotton zygotic embryo explants. In words: Relative activity of different formulations of dikegulac on DP50 cotton zygotic embryo explants. The format is cell-based. To be noted: cv DP50. The procedure:
Any common plant tissue culture media can be used, including, but not limited to, modified LP medium, DKW medium, GD1 medium, MS/B5 medium, or WPM medium. Embryo axes should be placed apical end up and basal end into the medium so that the radicle is beneath the medium surface. The explants are cultured axenically at approximately 25-28° C. under fluorescent lighting at about 10-50 μE PAR for a 16-hour photoperiod. Typically it takes 5-10 weeks for multiple shoots in cotton to develop to a useful size. Table 4 is a comparison of many different formulations of dikegulac.

Another data set relates to cotton plants. Description: Morphology and fertility of cotton plants grown from elongated, rooted shoots produced with dikegulac. The format is in vivo. The text has this: Elongation and rooting After multiple shoots are produced, individual shoots, epicotyls, or entire shoot clump developed on the explant are excised and subcultured on the basal medium used above (without the growth regulators, or with exogenous auxin) under the same temperature and light conditions. Table 4 is a comparison of many different formulations of dikegulac.

In the next data set the test system is cotton embryos. In words: Multiple shoot formation from cotton embryos cultured on varying levels of dikegulac with 1 mg/L IAA and 1 mg/L BAP. The format is cell-based. The procedure:
Tissue culture: Embryo explants are cultured in media in a suitable culture vessel containing 500 mg/L sodium dikegulac (2,3:4,6-diisopropylidene-2-keto-1-gulonic acid), 1 mg/L IAA (indole-3-acetic acid), and 1 mg/L BA (N-6-benzyladenine) (herein after referred to as DIB media). Any common plant tissue culture media can be used, including, but not limited to, modified LP medium, DKW medium, GD1 medium, MS/B5 medium, or WPM medium. Embryo axes should be placed apical end up and basal end into the medium so that the radicle is beneath the medium surface. The explants are cultured axenically at approximately 25-28° C. under fluorescent lighting at about 10-50 μE PAR for a 16-hour photoperiod. Typically it takes 5-10 weeks for multiple shoots in cotton to develop to a useful size. Experiments were done to determine if the form of the dikegulac is important and to determine a minimum optimum level of dikegulac needed for multiple shoot formation. […] What is not captured in the numerical data in Table 3 is the overall phenotypic response of the cultures. The explants cultured on the MS/B5 medium contained a lot of callus tissue at the base and the cultures were yellowing. The cultures on GD1 contained only a minimal amount of callus but the yellowing of the regenerating tissues was present.

The next data set has as its system cotton explants. In words: Early experiments with dikegulac sodium salt in the culture medium for cotton. To be noted: 1000 mg/L incorporated into the culture medium. The format is cell-based. As for the experimental part: Forms of dikegulac: Dikegulac comes in several forms, for example a sodium salt, Atrimmec™, and free add. Early experiments were done using 1000 mg/L of the sodium salt incorporated into the culture medium for cotton. […] Later tests reduced this to 500 mg/L for ease of shoot development. Sodium dikegulac (500 mg/L) was tested in all combinations with BAP (0, 1, and 5 mg/L) and IAA (0, 1, and 5 mg/L). For US upland cotton varieties, 500 mg/L dikegulac, 1 mg/L IAA and 1 mg/L BA is a particularly useful combination. Zeatin riboside (ZR) can be substituted for BA with good results. The cytokinin component can also be omitted with good results.

The mark [2] stands for this setting: Study 1, 500 mg/L, liquid DIB medium.
The mark [3] stands for this setting: Study 1, 500 mg/L, solid DIB medium.
Where [4] appears, read: Study 2, 500 mg/L, solid DIB medium.
Where [5] appears, read: MS/B5 medium, dikegulac 200 mg/L.
[6] abbreviates: MS/B5 medium, dikegulac 300 mg/L.
Setting [7] is: MS/B5 medium, dikegulac 500 mg/L.

Counter-ions that a name gives are not always drawn.

For `CC1(C)OC[C@@H]2O[C@@]3(C(=O)[O-])OC(C)(C)O[C@H]3[C@@H]2O1.[Na+]` [D4043], the figures for the “Extra buds per viable explant” value in data set [1] (setting [2]), in data set [1] (setting [3]) and in data set [1] (setting [4]) were 3.9, 3.4 and 4.1, respectively. In addition, the “No. non-viable Explants” value in data set [1] (setting [2]) is 16; in data set [1] (setting [3]), 5; in data set [1] (setting [4]) it was 8. Besides, the “Percent Responding” value in data set [1] (setting [2]) amounted to 84%; in data set [1] (setting [3]), 92%; in data set [1] (setting [4]) it was 83%.

Consider `CC1(C)OC[C@@H]2O[C@@]3(C(=O)[O-])OC(C)(C)O[C@H]3[C@@H]2O1.[Na+]` [Q2161], for which, in data set [1] (setting [2]), the “Extra buds per viable explant” value turned out to be 3.5, the “No. non-viable Explants” value turned out to be 20 and the “Percent Responding” value is 64%. In data set [1] (setting [3]), the “Extra buds per viable explant” value came to 2.9, the “No. non-viable Explants” value stood at 9 and the “Percent Responding” value is listed as 85%.

Consider `CC1(C)OC[C@@H]2O[C@@]3(C(=O)[O-])OC(C)(C)O[C@H]3[C@@H]2O1.[Na+]` [RJK-D], for which, in data set [1] (setting [2]), the “Extra buds per viable explant” value is 3.3, the “No. non-viable Explants” value is 11 and the “Percent Responding” value is on record as 82%.

For `CC1(C)OC[C@@H]2O[C@@]3(C(=O)[O-])OC(C)(C)O[C@H]3[C@@H]2O1.[Na+]` [RJK-H], the “Extra buds per viable explant” value amounted to 3.7 in data set [1] (setting [3]); 1.9 in data set [1] (Study 3, 400); 3.0 in data set [1] (Study 3, 500); 3.4 in data set [1] (Study 3, 600); 3.1 in data set [1] (Study 3, 700). Further, the “No. non-viable Explants” value is given as 9 in data set [1] (setting [3]); 20 in data set [1] (Study 3, 400); 17 in data set [1] (Study 3, 500); 24 in data set [1] (Study 3, 600); 33 in data set [1] (Study 3, 700). Also, the “Percent Responding” value in data set [1] (setting [3]) came to 85%; in data set [1] (Study 3, 400), 75%; in data set [1] (Study 3, 500), 79%; in data set [1] (Study 3, 600), 70%; in data set [1] (Study 3, 700) it was 59%.

For the compound `CC1(C)OC[C@@H]2O[C@@]3(C(=O)O)OC(C)(C)O[C@H]3[C@@H]2O1` [dikegulac (acid form), 2,3:4,6-di-o-isopropylidene-2-keto-L-gulonic add], the “Extra buds per viable explant” value was 3.4 in data set [1] (setting [2]), 3.8 in data set [1] (setting [3]) and 4.2 in data set [1] (setting [4]). Moreover, the “No. non-viable Explants” value came to 16 in data set [1] (setting [2]), 8 in data set [1] (setting [3]) and 1 in data set [1] (setting [4]). Besides, the “Percent Responding” value in data set [1] (setting [2]) is listed as 67%; in data set [1] (setting [3]) it was 87%; in data set [1] (setting [4]), 96%. Moreover, the “Fertility of plants developed from elongated, rooted shoots” value in the data set with cotton plants is on record as 100%. Also, in the data set on cotton plants, the “Morphology of plants developed from elongated, rooted shoots” value is “morphologically normal”. Further, the “# Responding, single shoots” value is 39/50 with cotton embryos (GD1 medium, dikegulac 100 mg/L); 22/50 with cotton embryos (GD1 medium, dikegulac 200 mg/L); 10/50 with cotton embryos (GD1 medium, dikegulac 300 mg/L); 36/50 in the data set on cotton embryos (MS/B5 medium, dikegulac 100 mg/L); 9/50 in the data set on cotton embryos (setting [5]); 3/50 in the data set with cotton embryos (setting [6]). In addition, the “# Responding, multiple shoots” value in the data set with cotton embryos (GD1 medium, dikegulac 200 mg/L) is 21/50; in the data set with cotton embryos (GD1 medium, dikegulac 300 mg/L), 33/50; in the data set on cotton embryos (GD1 medium, dikegulac 400 mg/L), 37/50; in the data set on cotton embryos (GD1 medium, dikegulac 500 mg/L), 40/50; in the data set on cotton embryos (setting [5]), 38/50; in the data set with cotton embryos (setting [6]) it was 41/50. Besides, the “# Responding, multiple shoots” value was 40/50 with cotton embryos (MS/B5 medium, dikegulac 400 mg/L) and 38/50 with cotton embryos (setting [7]).

Turning to `CC1(C)OC[C@@H]2O[C@@]3(C(=O)O)OC(C)(C)O[C@H]3[C@@H]2O1` [dikegulac (sodium salt), 2,3:4,6-diisopropylidene-2-keto-1-gulonic acid], the “Response of cotton explants” value in the data set on cotton explants was “swelling, enlarged meristems, and adventitious-like leaf primordia, but the explants did not easily grow out”. For the same compound, in the data set with cotton plants, the “Fertility of plants developed from elongated, rooted shoots” value was found to be 100% and the “Morphology of plants developed from elongated, rooted shoots” value is on record as “morphologically normal”. Further, the “# Responding, multiple shoots” value with cotton embryos (GD1 medium, dikegulac 500 mg/L) was 35/50. Moreover, the “# Responding, multiple shoots” value in the data set with cotton embryos (setting [7]) is listed as 39/50.

The values above are taken from patent US8187882B2, “Multiple shoot proliferation and regeneration system for plants” (Monsanto Technology LLC, priority 2001, dated 2012).
